Measurements from paper PMC11272085, “Steroid Drugs Inhibit Bacterial Respiratory Oxidases and Are Lethal Toward Methicillin-Resistant Staphylococcus aureus” (The Journal of Infectious Diseases, 2024).
Values after ≈ are worked out from the molar mass of the structure shown. Values joined by “and” are separate entries in the source; they are usually repeats but may differ in a detail not shown here. Equal entries are not always repeated. “Also recorded” adds a separate entry of the source. Where two headings read alike, the source gives them in different places. No end group written: not given here.

Tests used:
E. coli cytochrome bd-I [1] = biological target: T1, E. coli cytochrome bd-I (Escherichia coli, UniProt P0ABJ9); assay: Oxygen consumption assay (oxygen electrode), E. coli EC958 bd-I-only membranes; details: for Inhibition of oxygen consumption / Effect on oxygen consumption (in words): 100 µM drug; for Inhibition of oxygen consumption / IC50: 8 mM succinate; for Inhibition of oxygen consumption: 500 µg/mL membranes; for IC50: IC50 oxygen consumption; for IC50 / Effect on oxygen consumption (in words): E. coli bd-I-only membranes
T1 sequence (P0ABK2 whole entry, one chain of several): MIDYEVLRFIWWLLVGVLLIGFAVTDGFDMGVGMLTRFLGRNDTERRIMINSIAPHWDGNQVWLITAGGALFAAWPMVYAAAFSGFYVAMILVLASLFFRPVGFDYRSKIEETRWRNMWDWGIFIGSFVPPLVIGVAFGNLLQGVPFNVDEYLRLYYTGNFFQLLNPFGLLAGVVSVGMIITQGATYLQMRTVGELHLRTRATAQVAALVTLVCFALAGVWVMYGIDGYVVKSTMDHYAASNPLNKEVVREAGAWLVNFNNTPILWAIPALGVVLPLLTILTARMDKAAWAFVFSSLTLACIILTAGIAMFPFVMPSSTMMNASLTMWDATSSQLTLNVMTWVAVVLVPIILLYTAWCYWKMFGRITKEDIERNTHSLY
T1 sequence (A5A618 whole entry, one chain of several, further chain): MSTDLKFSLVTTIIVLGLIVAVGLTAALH
T1 sequence (P56100 whole entry, one chain of several, further chain): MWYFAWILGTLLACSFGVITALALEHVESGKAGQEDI

[2] = test system: Mycobacterium smegmatis bd-only strain; design: method as in PMID 31939065; details: ATP assays, M. smegmatis bd-only strain ref 40; cited from earlier work
succinate dehydrogenase = biological target: T2, succinate dehydrogenase (Escherichia coli, UniProt P07014+P0AC41+P0AC44+P69054); assay: Succinate dehydrogenase assay, E. coli bd-I-only membranes; assay type: biochemical
T2 construct: endogenous in cells; host or cells: E. coli EC958 bd-I-only mutant (ΔcyoA appCB::Cm), isolated cell membranes
T2 sequence (P0AC44 whole entry): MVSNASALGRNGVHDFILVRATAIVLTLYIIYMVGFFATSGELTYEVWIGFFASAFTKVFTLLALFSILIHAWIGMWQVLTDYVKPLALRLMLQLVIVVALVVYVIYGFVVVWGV
T2 sequence (P07014 whole entry): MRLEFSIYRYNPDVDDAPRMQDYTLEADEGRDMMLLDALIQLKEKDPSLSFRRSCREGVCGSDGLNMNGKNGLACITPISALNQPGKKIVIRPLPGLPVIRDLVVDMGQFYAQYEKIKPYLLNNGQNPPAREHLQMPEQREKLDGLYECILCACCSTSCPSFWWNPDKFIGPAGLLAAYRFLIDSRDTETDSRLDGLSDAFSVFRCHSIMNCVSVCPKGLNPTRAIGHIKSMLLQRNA
T2 sequence (P0AC41 whole entry): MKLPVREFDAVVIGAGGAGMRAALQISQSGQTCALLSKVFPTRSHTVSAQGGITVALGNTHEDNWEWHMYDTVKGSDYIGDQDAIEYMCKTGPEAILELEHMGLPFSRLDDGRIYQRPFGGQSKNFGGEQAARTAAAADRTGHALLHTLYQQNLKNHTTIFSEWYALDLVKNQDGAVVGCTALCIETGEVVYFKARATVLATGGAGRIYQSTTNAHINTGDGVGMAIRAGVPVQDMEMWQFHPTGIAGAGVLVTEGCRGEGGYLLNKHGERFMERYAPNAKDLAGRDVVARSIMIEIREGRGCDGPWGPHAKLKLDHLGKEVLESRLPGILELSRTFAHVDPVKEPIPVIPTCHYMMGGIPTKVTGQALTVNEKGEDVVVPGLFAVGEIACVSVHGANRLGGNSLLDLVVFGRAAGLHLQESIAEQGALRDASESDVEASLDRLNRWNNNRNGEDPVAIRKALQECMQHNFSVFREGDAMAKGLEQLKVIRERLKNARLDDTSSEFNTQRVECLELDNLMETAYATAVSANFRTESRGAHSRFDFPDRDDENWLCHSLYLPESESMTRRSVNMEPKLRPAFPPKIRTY
T2 sequence (P69054 whole entry): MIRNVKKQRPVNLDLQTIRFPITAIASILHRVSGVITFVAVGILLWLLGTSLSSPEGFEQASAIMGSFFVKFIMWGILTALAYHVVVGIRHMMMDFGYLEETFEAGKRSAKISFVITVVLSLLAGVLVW
Method: The method used for the succinate dehydrogenase assay is an adaptation of Kolaj-Robin et al. 2011 [6]. A 1 mL mixture was prepared with a final concentration of 400 μM phenazine methosulfate (PMS), 8 mM succinate, 50 mM Tris-HCL (pH 8.5) buffer, 0.02 % n-dodecyl-β-D-maltoside, 2.5% drug, 500 µg/mL of bacteria membranes and 50 μM of dichlorophenolindophenol (added last). The phenazine methosulfate, succinate and membranes were first preincubated for 30 min at 37 °C before being added to the remaining mixture. To start the reaction, 50 μM of dichlorophenolindophenol was added that produced a starting OD600 that ranged from 0.8 to 1. Spectrakinetics were recorded on a Cary 60 spectrophotometer for 15 min.
Supplementary Figure S3. Succinate dehydrogenase (SDH) E. coli membrane assay with quinestrol. The activity of SDH was expressed as a percentage of the DMSO only control. Data represent the means of three repeats and error bars represent the standard deviation.

E. coli bd-I-only cells = assay: Viability assay, E. coli bd-I-only; assay type: cell-based, Escherichia coli; details: data not shown
[3] = test system: vancomycin-resistant Enterococcus faecium; design: method as in PMID 28190396; details: previous screen ref 31; cited from earlier work
MRSA = test system: MRSA; design: method as in PMID 28190396; details: previous screen ref 31; cited from earlier work
gram-negative species = test system: gram-negative species; design: method as in PMID 28190396; details: previous screen ref 31; cited from earlier work
E. coli WT cells = assay: Viability assay, E. coli WT; details: 3 hours exposure
Method: (§1) Viability assays were performed essentially as described by Webster et al [22]. In brief, E. coli EC958 was grown overnight in 10 mL LB medium and was used to inoculate M9 medium. MRSA cells were grown in TSB medium throughout. Twenty microliters of each drug was added to the wells of row A of a 96-well plate followed by 180 µL of cells (OD600 of 0.1). Cells were exposed to drug for 3 hours at 37°C. Following drug exposure, serial dilutions were performed in 1× phosphate-buffered saline (pH 7.4) before being spotted onto LB agar plates overnight to determine changes in cell growth. Six repeats were performed for each concentration of drug, which included 2 biological repeats and 3 technical repeats of each.

MRSA USA300 WT = assay: Growth assay, MRSA USA300 WT
Method: (§2) Starter cultures were grown in 10 mL Luria–Bertani (LB) (E. coli) or 10 mL Tryptic Soy Broth (TSB) medium (MRSA) in sterile 50 mL conical flasks at 180 rpm and 37°C, until stationary phase was reached, and were used to inoculate 50 mL of fresh growth medium in 250 mL conical flasks. M9 minimal medium was used for E. coli (16 g/L Na2HPO4.2H2O, 3 g/L KH2PO4, 0.5 g/L NaCl, 1 g/L NH4Cl, 0.24 g/L MgSO4, 0.01 g/L CaCl2, 0.1% casamino acids, and 2% glycerol), and TSB medium was used for MRSA. […] Greiner F-bottom sterile 96-well plates were prepared by adding 100 µL of a 2× concentrated growth medium, 61.7 µL sterile milliQ H2O, 5 µL of the drug, and 33.3 µL of cell culture (final optical density at 600 nm [OD600] of ∼ 0.1). Cells were grown in a FLUOstar Omega plate reader at double orbital pattern setting with readings being taken 300 seconds apart.

E. coli EC958 WT = assay: Growth assay, E. coli EC958 WT; details: Escherichia coli, EC958WT, read-out: IC50 growth
Method: as §2

E. coli bo′-only cells = assay: Viability assay, E. coli bo′-only; details: data not shown
MRSA WT cells = assay: microbe, parasite or virus in culture; details: Staphylococcus aureus, 3 h, read-out: LC50 (median lethal concentration)
Method: as §1

MRSA bd-only cells = assay: microbe, parasite or virus in culture; details: Staphylococcus aureus, 3 h, read-out: LC50 (median lethal concentration)
Method: as §1

MRSA aa3-only cells = assay: microbe, parasite or virus in culture; details: Staphylococcus aureus, 3 h, read-out: LC50 (median lethal concentration)
Method: as §1

MRSA bd-only strain = assay: Growth assay, MRSA USA300 bd-only strain; details: Staphylococcus aureus, read-out: IC50 growth
Description: (§3) The methicillin-resistant Staphylococcus aureus (MRSA) strain used is the well-characterized USA300 LAC isolate [27], a community-associated MRSA strain isolated from the Los Angeles County Jail. All MRSA mutant strains were generated by phage transduction of the relevant transposon mutant from the Nebraska Transposon Mutant Library [28] into strain USA300 LAC using methods described previously [29], generating clean insertions in the loci of interest and conferring erythromycin resistance. For the purposes of this article, the MRSA qoxA::Tn strain will be referred to as “bd-only” while the cydA::Tn strain will be referred to as “aa3-only.”
(§4) Starter cultures were grown in 10 mL Luria–Bertani (LB) (E. coli) or 10 mL Tryptic Soy Broth (TSB) medium (MRSA) in sterile 50 mL conical flasks at 180 rpm and 37°C, until stationary phase was reached, and were used to inoculate 50 mL of fresh growth medium in 250 mL conical flasks. M9 minimal medium was used for E. coli (16 g/L Na2HPO4.2H2O, 3 g/L KH2PO4, 0.5 g/L NaCl, 1 g/L NH4Cl, 0.24 g/L MgSO4, 0.01 g/L CaCl2, 0.1% casamino acids, and 2% glycerol), and TSB medium was used for MRSA. […] Cells were grown in a FLUOstar Omega plate reader at double orbital pattern setting with readings being taken 300 seconds apart.

MRSA aa3-only strain = assay: Growth assay, MRSA USA300 aa3-only strain; details: Staphylococcus aureus, read-out: IC50 growth
Description: as §3, §4

E. coli bo′-only strain = assay: Growth assay, E. coli EC958 bo′-only strain; details: Escherichia coli, read-out: IC50 growth
Description: as §3, §4

E. coli bd-I-only strain = assay: Growth assay, E. coli EC958 bd-I-only strain; details: Escherichia coli, read-out: IC50 growth
Description: as §3, §4

MRSA cytochrome bd = MRSA cytochrome bd (Staphylococcus aureus, UniProt A0A0H2XF42); assay: Oxygen consumption assay, MRSA bd-only membranes; details: read-out: IC50 oxygen consumption; MRSA bd-only membranes 1 mg/mL, 500 µM NADH
Sequence of MRSA cytochrome bd (A0A0H2XF42 entry or part of it): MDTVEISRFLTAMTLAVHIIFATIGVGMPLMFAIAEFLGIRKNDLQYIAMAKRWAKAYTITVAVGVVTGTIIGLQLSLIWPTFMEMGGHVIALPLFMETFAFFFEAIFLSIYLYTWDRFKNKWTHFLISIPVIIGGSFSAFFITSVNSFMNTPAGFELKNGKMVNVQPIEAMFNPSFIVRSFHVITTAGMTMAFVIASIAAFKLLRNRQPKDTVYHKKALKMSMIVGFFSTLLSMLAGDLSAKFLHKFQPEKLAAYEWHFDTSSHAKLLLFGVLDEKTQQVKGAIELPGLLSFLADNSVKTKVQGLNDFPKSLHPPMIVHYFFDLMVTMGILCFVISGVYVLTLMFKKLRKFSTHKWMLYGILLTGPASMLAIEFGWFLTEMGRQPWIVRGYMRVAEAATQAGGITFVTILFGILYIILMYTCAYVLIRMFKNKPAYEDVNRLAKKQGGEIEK
Sequence of MRSA cytochrome bd (A0A0H2XJA4 entry or part of it, further chain): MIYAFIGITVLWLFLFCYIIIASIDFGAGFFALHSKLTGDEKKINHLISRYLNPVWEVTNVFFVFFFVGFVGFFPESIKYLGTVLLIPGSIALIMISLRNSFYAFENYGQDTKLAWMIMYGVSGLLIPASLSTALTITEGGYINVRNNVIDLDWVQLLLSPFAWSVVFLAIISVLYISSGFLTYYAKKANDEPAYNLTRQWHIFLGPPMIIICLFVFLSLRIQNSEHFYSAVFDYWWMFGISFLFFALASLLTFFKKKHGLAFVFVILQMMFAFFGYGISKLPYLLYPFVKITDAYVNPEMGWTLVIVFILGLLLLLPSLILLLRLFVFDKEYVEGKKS

E. coli cytochrome bd-I [4] = biological target: T3, E. coli cytochrome bd-I (Escherichia coli, UniProt P0ABJ9); details: peptides that bind to E. coli cytochrome bd-I ref 33, 34, 35; cited from earlier work
T3 construct: endogenous in cells; host or cells: E. coli EC958 (O25:H4-ST131) bd-I-only mutant (ΔcyoA appCB::Cm), isolated cell membranes
T3 sequence (P0ABJ9 whole entry, looked up): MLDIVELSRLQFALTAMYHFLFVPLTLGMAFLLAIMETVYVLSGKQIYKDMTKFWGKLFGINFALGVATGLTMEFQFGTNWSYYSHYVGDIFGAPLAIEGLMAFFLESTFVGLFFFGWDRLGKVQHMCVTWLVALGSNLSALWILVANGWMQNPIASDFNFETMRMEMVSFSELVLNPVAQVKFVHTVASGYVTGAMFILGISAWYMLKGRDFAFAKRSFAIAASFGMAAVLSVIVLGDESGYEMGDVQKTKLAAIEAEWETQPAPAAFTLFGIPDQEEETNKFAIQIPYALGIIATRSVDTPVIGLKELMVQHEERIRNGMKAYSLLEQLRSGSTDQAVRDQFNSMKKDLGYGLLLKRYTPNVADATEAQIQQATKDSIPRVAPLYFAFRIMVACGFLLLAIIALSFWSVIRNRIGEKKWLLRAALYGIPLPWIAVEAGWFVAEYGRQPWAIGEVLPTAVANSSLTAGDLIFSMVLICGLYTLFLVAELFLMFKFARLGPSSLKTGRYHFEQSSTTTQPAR

E. coli cytochrome bd-I [5] = biological target: T1, E. coli cytochrome bd-I; design: endogenous in cells; host or cells: E. coli EC958 (O25:H4-ST131) bd-I-only mutant (ΔcyoA appCB::Cm), isolated cell membranes; details: peptides that bind to E. coli cytochrome bd-I ref 33, 34, 35; cited from earlier work

Molecule: C#C[C@]1(O)CC[C@H]2[C@@H]3CCc4cc(O)ccc4[C@H]3CC[C@@]21C [Ethinyl estradiol]
- Inhibition of oxygen consumption (E. coli cytochrome bd-I [1]): 2 fold
- IC50 (E. coli cytochrome bd-I [1]): 159 µM and 158 µM

Molecule: CCn1c(C(=O)O)c(CNCCc2ccc(Cl)cc2)c2ccccc21 [MQL-H2, 3-[[2-(4-chlorophenyl)ethylamino]methyl]-1-ethyl-indole-2-carboxylic]
- IC50 [2]: 34 µM

Molecule: C#C[C@]1(O)CC[C@H]2[C@@H]3CCc4cc(OC)ccc4[C@H]3CC[C@@]21C [Mestranol]
- Effect on oxygen consumption (in words) (E. coli cytochrome bd-I [1]): did not diminish oxygen consumption
- Effect on oxygen consumption (in words) (E. coli cytochrome bd-I [1]; listed as mestranol): no inhibitory effects

Molecule: C#C[C@]1(O)CC[C@H]2[C@@H]3CCc4cc(OC5CCCC5)ccc4[C@H]3CC[C@@]21C [Quinestrol]
- Succinate dehydrogenase activity (in words) (succinate dehydrogenase): does not inhibit succinate dehydrogenase activity
- Bactericidal activity (in words) (E. coli bd-I-only cells): no killing effects
- Growth inhibition (in words) [3]: inhibit the growth
- Growth inhibition (in words) (MRSA): inhibit the growth
- Growth inhibition (in words) (gram-negative species): not gram-negative species
- Bactericidal activity (in words) (E. coli WT cells): not lethal
- Bactericidal activity (in words) (E. coli WT cells; listed as quinestrol): did not kill; also recorded: completely resistant to killing
- IC50 (MRSA USA300 WT; Staphylococcus aureus, read-out: IC50 growth, MRSA WT, TSB medium): 9.8 µg/mL and 27 µM
- IC50 (MRSA USA300 WT; read-out: IC50 growth, MRSA WT, TSB medium): 26.9 µM
- IC50 (E. coli EC958 WT): 0.1 µg/mL and 300 nM
- Bactericidal activity (in words) (E. coli bo′-only cells): no killing effects
- CC50 (MRSA WT cells): 3.4 ± 0.7 µg/mL (≈ 9.33 µM)
- CC50 (MRSA bd-only cells): 5.6 ± 0.3 µg/mL (≈ 15.4 µM)
- CC50 (MRSA aa3-only cells): 24.7 ± 1.6 µM
- IC50 (MRSA bd-only strain): 2.2 µg/mL and 6 µM
- IC50 (MRSA aa3-only strain): 5.7 µg/mL and 15.6 µM
- IC50 (E. coli bo′-only strain): 0.1 µg/mL and 300 nM
- IC50 (E. coli bd-I-only strain): 0.06 µg/mL and 200 nM
- IC50 (MRSA cytochrome bd): 2.69 µM
- Inhibition of oxygen consumption (E. coli cytochrome bd-I [1]): 4 fold
- IC50 (E. coli cytochrome bd-I [1]): 0.549 µM and 0.5 µM
- Residual oxygen consumption activity (E. coli cytochrome bd-I [1]; at higher concentrations): around 20%

Molecule: cathelicidin LL-37
- IC50 (in words) (E. coli cytochrome bd-I [4]): µM range

Molecule: gramicidin S
- IC50 (in words) (E. coli cytochrome bd-I [5]): µM range

Molecule: microcin J25 (GGAGHVPEYFVGIGTPISFYG; ends and bridges not checked; UniProt Q9X2V7 38-58, looked up)
- IC50 (in words) (E. coli cytochrome bd-I [4]): µM range
